According to patent US4191808A, “Method of measuring dipeptidyl-amino-peptidase activity” (Ajinomoto Co., Inc., priority 1975, dated 1980):
Peptide text beside a SMILES is read from it. * marks the point of attachment. pNA = O=[N+]([O-])c1ccc(N*)cc1

Experiments:
[1] = biological target: T1, X-prolyl dipeptidyl-aminopeptidase in human serum (Homo sapiens, UniProt P27487); experiment: Hydrolysis of phenylazo substrates by human serum, photometry at 493 nm / 532 nm; assay type: biochemical
T1 construct: Even if crude enzyme such as human serum is used as enzyme source, the activity is accurately measured; from tissue; host or cells: human serum (normal subjects and patients)
T1 sequence (P27487 39-766 limits assumed): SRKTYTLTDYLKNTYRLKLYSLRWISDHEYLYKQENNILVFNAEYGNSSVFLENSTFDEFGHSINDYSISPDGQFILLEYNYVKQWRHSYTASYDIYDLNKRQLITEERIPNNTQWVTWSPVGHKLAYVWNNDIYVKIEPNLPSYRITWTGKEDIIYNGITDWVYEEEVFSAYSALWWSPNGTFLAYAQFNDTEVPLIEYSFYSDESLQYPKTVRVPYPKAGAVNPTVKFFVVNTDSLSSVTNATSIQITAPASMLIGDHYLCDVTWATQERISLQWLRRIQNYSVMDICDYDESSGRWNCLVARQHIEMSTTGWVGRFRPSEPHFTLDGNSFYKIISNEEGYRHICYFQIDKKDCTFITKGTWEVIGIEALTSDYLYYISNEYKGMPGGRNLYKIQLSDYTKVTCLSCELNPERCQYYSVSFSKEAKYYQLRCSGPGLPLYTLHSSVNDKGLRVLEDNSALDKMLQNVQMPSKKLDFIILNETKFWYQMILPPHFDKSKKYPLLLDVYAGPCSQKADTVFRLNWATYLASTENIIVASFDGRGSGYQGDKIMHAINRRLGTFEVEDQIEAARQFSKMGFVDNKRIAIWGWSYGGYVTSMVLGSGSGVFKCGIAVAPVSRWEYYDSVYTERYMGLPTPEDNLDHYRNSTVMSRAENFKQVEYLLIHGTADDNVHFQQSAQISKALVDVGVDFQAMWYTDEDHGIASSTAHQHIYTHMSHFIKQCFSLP
Description: 3 mM of substrate solutions were prepared as in Example 22, glycyl-L-proline p-phenylazoanilide tosylate and glycyl-L-proline 4-phenylazo-1-naphthylamide being used as substrates.
The assay of enzyme activity was carried out by adding 0.05 ml of human serum to a mixture of 0.5 ml […] glycine-NaOH buffer (pH 8.7) and 0.5 ml substrate solution in the experimental tube, incubating the resulting solution at 37° C. for 30 minutes, and then stopping the reaction with 3.0 ml 1N-hydrochloric acid. The absorbances were A 493 nm=0.18 for glycyl-L-proline p-phenylazoanilide and A 532 nm=0.80 for glycyl-L-proline 4-phenylazo-1-naphthylamide.
The rate of hydrolysis of glycyl-L-proline p-phenylazoanilide was measured as in Example 26, human serum being used as enzyme. However, the blank tube contained water instead of the enzyme solution in the experimental tube, and the standard tube contained 3 mM p-phenylazo-aniline solution instead of the enzyme solution in the experimental tube.

[2] = tested on: human serum; experiment: Paper chromatography of products after incubation with human serum; assay type: biochemical; details: incubation 30 minutes
Description: The products obtained after incubating various X-L-proline p-nitroanilides with purified human submaxillary enzyme or human serum for 30 minutes as in Example 22 were examined by paper chromatography, the residues of glycine, L-alanine, L-glutamic acid, L-aspartic acid, L-lysine and L-argine being used as the N-terminal amino acids (X).
When the rate of hydrolysis of L-proline p-nitroanilide by human serum was examined, it was observed only 0.7% of hydrolysis of glycyl-L-proline p-nitroanilide.

[3] = Stability of aqueous substrate solution; assay type: physicochemical; details: at the optimum pH, 4° C.
Description: The enzyme activity is measured without difficulty by using the dipeptide derivatives or salts thereof as substrates. An aqueous solution of X-L-proline-Y or salt thereof having a suitable concentration is first prepared. Since it requires a fairly long time to dissolve the substrate in water, it is preferred to use suitable substances capable of increasing the dissolution rate such as non-ionic detergents, acids and alcohols, or to use the substrate in the porous form which may be prepared by freeze-drying or the like. The porous substrate is most convenient for routine use for assay of the enzyme. The optimum pH of the substrate solution varies depending on the kind of substrate employed, but is easily determined by experiments. The optimum pH is usually in the range of from 6 to 9, preferably of from 7.5 to 8.9.

[4] = tested on: purified human submaxillary enzyme (X-prolyl dipeptidyl-aminopeptidase); experiment: Direct photometric assay of substrate hydrolysis with purified human submaxillary enzyme; assay type: biochemical
Description: (§1) 3mM substrate solutions were prepared as in Example 22, various dipeptide derivatives or salts thereof being used as substrates. The relative enzyme activities toward various substrates, and the rates and optimum pHs of hydrolysis of various substrates with the enzyme were measured as in Example 22.
^a Activities were measured in 0.15 M Trismaleate buffer at pH 5.6-8.
and in 0.15 M glycineNaOH buffer at pH 8.2-9.4, purified human
submaxillary enzyme being used. For Lalanyl-L-proline pnitroanilide,
amidiol buffer were used instead of glycine buffer, since glycine buffer
interfered the photometry at pH 9-10.
^b Km values were measured at 7.0 in Trismaleate buffer, purified
human submaxillary enzyme being used. The values are the mean of duplicat
(§2) ^c Activities were measured at pH 7.0 in 0.15 M Trismaleate buffer or
(§3) at pH 8.7 in 0.15 M glycineNaOH buffer. The values are the mean of
^d The purified enzyme was obtained by the following method; The
enzyme was solubilized from the microsomal fraction by autodigestion, and
subsequently purified by (NH4)2 SO4 fractionation followed
by Sephadex G200 chromatography.

[5] = biological target: T1, X-prolyl dipeptidyl-aminopeptidase in human serum; experiment: Direct photometric assay of substrate hydrolysis (p-nitroaniline liberated, 385 nm) with human serum as enzyme source; assay type: biochemical; details: for Enzyme activity (μmole/min/1 serum ± S.E.): 3 cases; for Amount of p-nitroaniline formed: 37° C., pH 8.7, 0.05 ml human serum; for Enzyme activity average ± S. E.: normal human sera
Description: The relation between the incubation time and the amount of substrate hydrolyzed was examined, glycyl-L-proline p-nitroanilide and human serum being used as substrate and enzyme source, respectively, and the assay of the substrate hydrolyzed was carried out by the following direct photometric method.
Glycyl-L-proline p-nitroanilide tosylate was dissolved in 2% non-ionic detergent (Nikkol NP-10; Nikko Chemicals, Osaka, Japan) aqueous solution in a concentration of 3 mM to prepare the substrate solution. The following four tubes were prepared:
(1) the experimental tube contained 0.5 ml of 0.15 M glycine-NaOH buffer (pH 8.7), 0.5 ml of the substrate solution, and 0.05 ml of human serum
(2) the blank tube contained 0.5 ml of the 0.15 M glycine-NaOH buffer, 0.5 ml of the substrate solution and 0.05 ml of water.
(3) the standard tube contained 0.5 ml of the buffer, 0.5 ml of the substrate and 0.05 ml of 3 mM p-nitroaniline aqueous solution.
(4) the control tube contained 0.5 ml of the buffer and 0.5 ml of the substrate.
All tubes were incubated at 37° C. for the periods listed in Table 1, and the reaction was stopped by the addition of 3.0 ml of 1M acetate buffer (pH 4.2) to every tube. To the control tube, 0.05 ml of the human serum was added after stopping the reaction. A photometer was adjusted to zero with the blank, and the absorbances of the experimental (E), control (C), and standard (S) were read at 385 nm in a cuvette with 1 cm light path. p-Nitroaniline liberated by the enzyme reaction was calculated by the equation [formula]
as §1, §2, §3
The activity of X-prolyl dipeptidyl-aminopeptidase was measured as in Example 22, glycyl-L-proline p-nitroanilide and 88 normal human sera being used as substrate and enzyme, respectively.
The activity of X-prolyl dipeptidyl-aminopeptidase was measured as in Example 22, glycyl-L-proline p-nitroanilide and human sera from patients being used as substrate and enzyme sources, respectively.
The activity of X-prolyl dipeptidyl-aminopeptidase was measured as in Example 22, various X-L-prolyl p-nitroanilides, and human sera from patients being used as substrates and enzyme sources, respectively.

[6] = 0.05 ml human serum, pH 8.7, 37° C., 30 minutes

Cc1ccc(S(=O)(=O)O)cc1.NCC(=O)N1CCC[C@H]1C(=O)Nc1ccc(N=Nc2ccccc2)cc1 [glycyl-L-proline p-phenylazoanilide, Glycyl-L-proline p-phenylazoanilide tosylate]
absorbance A 493 nm [1, 6]: 0.18
rate of hydrolysis ([1]; human serum as enzyme, as in Example 26): 18.7 n mole/min./l serum

NCC(=O)N1CCC[C@H]1C(=O)O [Glycyl-L-proline] (H-Gly-Pro-OH)
products identified by paper chromatography / hydrolysis by human serum [2]: hydrolyzed to glycine and L-proline

NCC(=O)N1CCC[C@H]1C(=O)Nc1ccc(N=Nc2ccccc2)c2ccccc12 [Glycyl-L-proline 4-phenylazo-1-naphthyl amide]
absorbance A 532 nm [1, 6]: 0.80

NCC(=O)N1CCC[C@H]1C(=O)Nc1ccc([N+](=O)[O-])cc1 [glycyl-L-proline p-nitroanilide, Glycyl-L-proline p-nitroanilide] (H-Gly-Pro-pNA)
storage of substrate solution without appreciable degradation [3]: more than a week
Optimum pH ([4]; Tris-maleate, glycine-NaOH or amidiol buffer): 8.5-8.7
Relative enzyme activity (%) Purified human submaxillary enzyme pH 7.0 ([4]; pH 7.0, 0.15 M Tris-maleate buffer, glycyl-L-proline p-nitroanilide = 100): 100%
Km ([4]; pH 7.0, Tris-maleate buffer, mean of duplicate experiments): 330 µM
Enzyme activity ([5]; human sera from patients, Acute lymphocytic leukemia, 22 cases): 38.8 ± 11.9 μmole/min/1 serum
Enzyme activity ([5]; human sera from patients, Early essential hypertension, 20 cases): 80.94 ± 3.87 μmole/min/1 serum
Enzyme activity ([5]; human sera from patients, Fixed essential hypertension, 17 cases): 89.29 ± 3.69 μmole/min/1 serum
Enzyme activity (μmole/min/1 serum ± S.E.) ([5]; human sera from patients, Gastric Cancer): 25.3 ± 3.0 μmole/min/1 serum
Enzyme activity ([5]; human sera from patients, Gastric Cancer, 37 cases): 38.4 ± 2.3 μmole/min/1 serum
Enzyme activity (μmole/min/1 serum ± S.E.) ([5]; human sera from patients, Hepatitis): 143.0 ± 31.8 μmole/min/1 serum
Enzyme activity ([5]; human sera from patients, Hepatitis, 23 cases): 75.8 ± 28.5 μmole/min/1 serum
Enzyme activity ([5]; human sera from patients, Hodgkin's disease, 15 cases): 31.0 ± 9.5 μmole/min/1 serum
Enzyme activity ([5]; human sera from patients, Lymphosarcoma, 11 cases): 36.3 ± 5.6 μmole/min/1 serum
Enzyme activity ([5]; human sera from patients, Pulmonary Cancer, 17 cases): 39.8 ± 2.6 μmole/min/1 serum
Enzyme activity (μmole/min/1 serum ± S.E.) ([5]; human sera, Normal (control)): 50.4 ± 15.0 μmole/min/1 serum
Enzyme activity ([5]; human sera, Normal (control), 88 cases): 54.9 ± 1.5 μmole/min/1 serum
Relative enzyme activity (%) Human serum pH 7.0 ([5]; human serum, pH 7.0, 0.15 M Tris-maleate buffer, glycyl-L-proline p-nitroanilide = 100): 100%
Relative enzyme activity (%) Human serum pH 8.7 ([5]; human serum, pH 8.7, 0.15 M glycine-NaOH buffer, glycyl-L-proline p-nitroanilide = 100): 100%
Amount of p-nitroaniline formed ([5]; incubation time 15 min): 18.11 n mole
Amount of p-nitroaniline formed ([5]; incubation time 30 min): 35.43 n mole
Amount of p-nitroaniline formed ([5]; incubation time 60 min): 71.65 n mole
Amount of p-nitroaniline formed ([5]; incubation time 90 min): 100.79 n mole
Amount of p-nitroaniline formed ([5]; incubation time 120 min): 135.43 n mole
Enzyme activity average ± S. E. ([5]; Older Female, 17 subjects, 48-76 years): 58.16 ± 4.37 μ mole/min/1 serum
Enzyme activity average ± S. E. ([5]; Older Male, 29 subjects, 41-81 years): 53.18 ± 2.43 μ mole/min/1 serum
Enzyme activity average ± S. E. ([5]; Older, 46 subjects, 41-81 years): 55.04 ± 2.23 μ mole/min/1 serum
Enzyme activity average ± S. E. ([5]; Total Female, 35 subjects, 20-76 years): 52.49 ± 2.47 μ mole/min/1 serum
Enzyme activity average ± S. E. ([5]; Total Male, 53 subjects, 15-81 years): 56.30 ± 1.90 μ mole/min/1 serum
Enzyme activity average ± S. E. ([5]; Total, 88 subjects, 15-81 years): 54.88 ± 1.50 μ mole/min/1 serum
Enzyme activity average ± S. E. ([5]; Younger Female, 18 subjects, 20-40 years): 47.59 ± 2.07 μ mole/min/1 serum
Enzyme activity average ± S. E. ([5]; Younger Male, 24 subjects, 15-40 years): 60.10 ± 2.84 μ mole/min/1 serum
Enzyme activity average ± S. E. ([5]; Younger, 42 subjects, 15-40 years): 54.76 ± 2.07 μ mole/min/1 serum
products identified by paper chromatography / hydrolysis by human serum [2]: glycyl-L-proline, glycine, L-proline and p-nitroaniline were identified
